# Test results taken from patent US8952024B2, “Herbicidal pyrimidone derivatives” (E I du Pont de Nemours and Company, priority 2009, dated 2015).
# Like-named read-outs stand apart in the source and are kept apart here.
# How the values were obtained:
# Assay in all cases: Test B pre-/postemergence plant response
# Format in all cases: in vivo
# [1] = tested on: lambsquarters (Chenopodium album); conditions: for pest or weed control at 31 g/ha: 31 g ai/ha; for pest or weed control at 125 g/ha: 125 g ai/ha
# Procedure, shortened: (§1)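 Each species received compound formulated in non-phytotoxic solvent with surfactant, either at planting into a loam and sand blend or as a foliar spray once plants reached 2 to 18 cm in peat-based medium. Plants stayed in the greenhouse 13 to 15 days before visual evaluation against controls, scored 0 (no effect) to 100 (complete control).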
# [2] = tested on: large crabgrass (Digitaria sanguinalis); conditions: for pest or weed control at 31 g/ha: 31 g ai/ha; for pest or weed control at 125 g/ha: 125 g ai/ha
# Procedure, shortened: as §1
# [3] = tested on: morningglory (Ipomoea coccinea); conditions: for pest or weed control at 125 g/ha: 125 g ai/ha
# Procedure, shortened: as §1
# [4] = tested on: pigweed (Amaranthus retroflexus); conditions: for pest or weed control at 31 g/ha: 31 g ai/ha; for pest or weed control at 125 g/ha: 125 g ai/ha
# Procedure, shortened: as §1
# soybean (Glycine max) = tested on: soybean (Glycine max)
# Procedure, shortened: as §1
# [5] = tested on: velvetleaf (Abutilon theophrasti); conditions: for pest or weed control at 31 g/ha: 31 g ai/ha; for pest or weed control at 125 g/ha: 125 g ai/ha
# Procedure, shortened: as §1
# wild oat (Avena fatua) = conditions: for pest or weed control at 31 g/ha: 31 g ai/ha; for pest or weed control at 125 g/ha: 125 g ai/ha
# Procedure, shortened: as §1
# [6] = tested on: woolly cupgrass (Eriochloa villosa); conditions: for pest or weed control at 31 g/ha: 31 g ai/ha; for pest or weed control at 125 g/ha: 125 g ai/ha
# Procedure, shortened: as §1
# [7] = tested on: yellow nutsedge (Cyperus esculentus); conditions: for pest or weed control at 31 g/ha: 31 g ai/ha; for pest or weed control at 125 g/ha: 125 g ai/ha
# Procedure, shortened: as §1
# [8] = Preemergence, 250 g ai/ha, 0 to 100 scale
# [9] = 62 g ai/ha, postemergence, 0 is no effect, 100 is complete control, 13 to 15 days
smiles,measurement,setting,value
"COCCCn1c(-c2ccccc2)ncc(C(=O)C2=C(O)CCCC2=O)c1=O [Compound 81, 5-[(2-hydroxy-6-oxo-cyclohexen-1-yl)carbonyl]-3-(3-methoxypropyl)-2-phenyl-4(3H)-pyrimidinone]",pest or weed control at 31 g/ha,"[1]; Chenopodium album, post-emergence, postemergence, scale 0 to 100, 0 is no effect, 100 is complete control, read-out: Plant response rating, Lambsquarters",95%
same,pest or weed control at 125 g/ha,"[1]; Chenopodium album, post-emergence, Postemergence, visual rating after 13 to 15 days, scale 0 (no effect) to 100 (complete control)",100%
same,pest or weed control at 250 g/ha,"[1]; Chenopodium album, post-emergence, Postemergence, 250 g ai/ha, scale 0 to 100 (0 no effect, 100 complete control), read-out: Plant response rating, Lambsquarters",100%
same,pest or weed control at 31 g/ha,"[1]; Chenopodium album, pre-emergence, Preemergence, scale 0 to 100 (0 no effect, 100 complete control), read-out: Plant response rating, Lambsquarters",98%
same,pest or weed control at 62 g/ha,"[1]; Chenopodium album, pre-emergence, Preemergence, 62 g ai/ha, scale 0 to 100, 0 no effect, 100 complete control, read-out: Plant response rating, Lambsquarters",98%
same,pest or weed control at 125 g/ha,"[1]; Chenopodium album, pre-emergence, Preemergence, scale 0 to 100, 0 no effect, 100 complete control, read-out: Plant response rating, Lambsquarters",98%
same,Lambsquarters plant response rating,[1]; [8],98
same,"Crabgrass, Large plant response rating (0 to 100 scale)",[2]; [9],95
same,pest or weed control at 31 g/ha,"[2]; Digitaria sanguinalis, post-emergence, postemergence, scale 0 to 100, 0 is no effect, 100 is complete control, read-out: Plant response rating, Crabgrass, Large",85%
same,pest or weed control at 125 g/ha,"[2]; Digitaria sanguinalis, post-emergence, Postemergence, visual rating after 13 to 15 days, scale 0 (no effect) to 100 (complete control)",95%
same,pest or weed control at 250 g/ha,"[2]; Digitaria sanguinalis, post-emergence, Postemergence, 250 g ai/ha, scale 0 to 100 (0 no effect, 100 complete control), read-out: Plant response rating, Crabgrass, Large",98%
same,pest or weed control at 31 g/ha,"[2]; Digitaria sanguinalis, pre-emergence, Preemergence, scale 0 to 100 (0 no effect, 100 complete control), read-out: Plant response rating, Crabgrass, Large",100%
same,pest or weed control at 62 g/ha,"[2]; Digitaria sanguinalis, pre-emergence, Preemergence, 62 g ai/ha, scale 0 to 100, 0 no effect, 100 complete control, read-out: Plant response rating, Crabgrass, Large",100%
same,pest or weed control at 125 g/ha,"[2]; Digitaria sanguinalis, pre-emergence, Preemergence, scale 0 to 100, 0 no effect, 100 complete control, read-out: Plant response rating, Crabgrass, Large",100%
same,"Crabgrass, Large plant response rating",[2]; [8],100
same,Morningglory plant response rating (0 to 100 scale),[3]; [9],90
same,pest or weed control at 31 g/ha,"[3]; Ipomoea, post-emergence, 31 g ai/ha, postemergence, scale 0 to 100, 0 is no effect, 100 is complete control, read-out: Plant response rating, Morningglory",75%
same,pest or weed control at 125 g/ha,"[3]; Ipomoea, post-emergence, Postemergence, visual rating after 13 to 15 days, scale 0 (no effect) to 100 (complete control)",100%
same,pest or weed control at 250 g/ha,"[3]; Ipomoea, post-emergence, Postemergence, 250 g ai/ha, scale 0 to 100 (0 no effect, 100 complete control), read-out: Plant response rating, Morningglory",100%
same,pest or weed control at 62 g/ha,"[3]; Ipomoea, pre-emergence, Preemergence, 62 g ai/ha, scale 0 to 100, 0 no effect, 100 complete control, read-out: Plant response rating, Morningglory",65%
same,pest or weed control at 125 g/ha,"[3]; Ipomoea, pre-emergence, Preemergence, scale 0 to 100, 0 no effect, 100 complete control, read-out: Plant response rating, Morningglory",80%
same,Morningglory plant response rating,[3]; [8],95
same,Pigweed plant response rating (0 to 100 scale),[4]; [9],100
same,pest or weed control at 31 g/ha,"[4]; Amaranthus retroflexus, post-emergence, postemergence, scale 0 to 100, 0 is no effect, 100 is complete control, read-out: Plant response rating, Pigweed",98%
same,pest or weed control at 125 g/ha,"[4]; Amaranthus retroflexus, post-emergence, Postemergence, visual rating after 13 to 15 days, scale 0 (no effect) to 100 (complete control)",100%
same,pest or weed control at 250 g/ha,"[4]; Amaranthus retroflexus, post-emergence, Postemergence, 250 g ai/ha, scale 0 to 100 (0 no effect, 100 complete control), read-out: Plant response rating, Pigweed",100%
same,pest or weed control at 31 g/ha,"[4]; Amaranthus retroflexus, pre-emergence, Preemergence, scale 0 to 100 (0 no effect, 100 complete control), read-out: Plant response rating, Pigweed",100%
same,pest or weed control at 62 g/ha,"[4]; Amaranthus retroflexus, pre-emergence, Preemergence, 62 g ai/ha, scale 0 to 100 (0 no effect, 100 complete control), read-out: Plant response rating, Pigweed",100%
same,pest or weed control at 125 g/ha,"[4]; Amaranthus retroflexus, pre-emergence, Preemergence, scale 0 to 100, 0 no effect, 100 complete control, read-out: Plant response rating, Pigweed",100%
same,Pigweed plant response rating,[4]; [8],100
same,Soybean plant response rating (0 to 100 scale),soybean (Glycine max); [9],95
same,plant injury at 31 g/ha,"soybean (Glycine max); Glycine max, post-emergence, 31 g ai/ha, postemergence, scale 0 to 100, 0 is no effect, 100 is complete control, read-out: Plant response rating, Soybean",85%
same,plant injury at 125 g/ha,"soybean (Glycine max); Glycine max, post-emergence, Postemergence, 125 g ai/ha, visual rating after 13 to 15 days, scale 0 (no effect) to 100 (complete control)",95%
same,plant injury at 250 g/ha,"soybean (Glycine max); Glycine max, post-emergence, Postemergence, 250 g ai/ha, scale 0 to 100 (0 no effect, 100 complete control), read-out: Plant response rating, Soybean",98%
same,Velvetleaf plant response rating (0 to 100 scale),[5]; [9],100
same,pest or weed control at 31 g/ha,"[5]; Abutilon theophrasti, post-emergence, 360 h, postemergence, scale 0 to 100, 0 is no effect, 100 is complete control, read-out: Plant response rating, Velvetleaf",100%
same,pest or weed control at 125 g/ha,"[5]; Abutilon theophrasti, post-emergence, 360 h, Postemergence, visual rating after 13 to 15 days, scale 0 (no effect) to 100 (complete control)",100%
same,pest or weed control at 250 g/ha,"[5]; Abutilon theophrasti, post-emergence, 360 h, Postemergence, 250 g ai/ha, scale 0 to 100 (0 no effect, 100 complete control), read-out: Plant response rating, Velvetleaf",100%
same,pest or weed control at 31 g/ha,"[5]; Abutilon theophrasti, pre-emergence, 360 h, Preemergence, scale 0 to 100 (0 no effect, 100 complete control), read-out: Plant response rating, Velvetleaf",100%
same,pest or weed control at 62 g/ha,"[5]; Abutilon theophrasti, pre-emergence, 360 h, Preemergence, 62 g ai/ha, scale 0 to 100 (0 no effect, 100 complete control), read-out: Plant response rating, Velvetleaf",100%
same,pest or weed control at 125 g/ha,"[5]; Abutilon theophrasti, pre-emergence, 360 h, Preemergence, scale 0 to 100, 0 no effect, 100 complete control, read-out: Plant response rating, Velvetleaf",100%
same,Velvetleaf plant response rating,[5]; [8],100
same,"Oat, Wild plant response rating (0 to 100 scale)",wild oat (Avena fatua); [9],35
same,pest or weed control at 31 g/ha,"wild oat (Avena fatua); Avena fatua, post-emergence, postemergence, scale 0 to 100, 0 is no effect, 100 is complete control, read-out: Plant response rating, Oat, Wild",25%
same,pest or weed control at 125 g/ha,"wild oat (Avena fatua); Avena fatua, post-emergence, Postemergence, visual rating after 13 to 15 days, scale 0 (no effect) to 100 (complete control)",50%
same,pest or weed control at 250 g/ha,"wild oat (Avena fatua); Avena fatua, post-emergence, Postemergence, 250 g ai/ha, scale 0 to 100 (0 no effect, 100 complete control), read-out: Plant response rating, Oat, Wild",55%
same,pest or weed control at 31 g/ha,"wild oat (Avena fatua); Avena fatua, pre-emergence, Preemergence, scale 0 to 100 (0 no effect, 100 complete control), read-out: Plant response rating, Oat, Wild",0%
same,pest or weed control at 62 g/ha,"wild oat (Avena fatua); Avena fatua, pre-emergence, Preemergence, 62 g ai/ha, scale 0 to 100 (0 no effect, 100 complete control), read-out: Plant response rating, Oat, Wild",0%
same,pest or weed control at 125 g/ha,"wild oat (Avena fatua); Avena fatua, pre-emergence, Preemergence, scale 0 to 100, 0 no effect, 100 complete control, read-out: Plant response rating, Oat, Wild",0%
same,"Oat, Wild plant response rating",wild oat (Avena fatua); [8],0
same,"Cupgrass, Woolly plant response rating (0 to 100 scale)",[6]; [9],75
same,pest or weed control at 31 g/ha,"[6]; Eriochloa villosa, post-emergence, postemergence, scale 0 to 100, 0 is no effect, 100 is complete control, read-out: Plant response rating, Cupgrass, Woolly",65%
same,pest or weed control at 125 g/ha,"[6]; Eriochloa villosa, post-emergence, Postemergence, visual rating after 13 to 15 days, scale 0 (no effect) to 100 (complete control)",90%
same,pest or weed control at 250 g/ha,"[6]; Eriochloa villosa, post-emergence, Postemergence, 250 g ai/ha, scale 0 to 100 (0 no effect, 100 complete control), read-out: Plant response rating, Cupgrass, Woolly",90%
same,pest or weed control at 31 g/ha,"[6]; Eriochloa villosa, pre-emergence, Preemergence, scale 0 to 100 (0 no effect, 100 complete control), read-out: Plant response rating, Cupgrass, Woolly",40%
same,pest or weed control at 62 g/ha,"[6]; Eriochloa villosa, pre-emergence, Preemergence, 62 g ai/ha, scale 0 to 100, 0 no effect, 100 complete control, read-out: Plant response rating, Cupgrass, Woolly",55%
same,pest or weed control at 125 g/ha,"[6]; Eriochloa villosa, pre-emergence, Preemergence, scale 0 to 100, 0 no effect, 100 complete control, read-out: Plant response rating, Cupgrass, Woolly",75%
same,"Cupgrass, Woolly plant response rating",[6]; [8],85
same,"Nutsedge, Yellow plant response rating (0 to 100 scale)",[7]; [9],80
same,pest or weed control at 31 g/ha,"[7]; Cyperus, post-emergence, postemergence, scale 0 to 100, 0 is no effect, 100 is complete control, read-out: Plant response rating, Nutsedge, Yellow",65%
same,pest or weed control at 125 g/ha,"[7]; Cyperus, post-emergence, Postemergence, visual rating after 13 to 15 days, scale 0 (no effect) to 100 (complete control)",80%
same,pest or weed control at 250 g/ha,"[7]; Cyperus, post-emergence, Postemergence, 250 g ai/ha, scale 0 to 100 (0 no effect, 100 complete control), read-out: Plant response rating, Nutsedge, Yellow",80%
same,pest or weed control at 31 g/ha,"[7]; Cyperus, pre-emergence, Preemergence, scale 0 to 100 (0 no effect, 100 complete control), read-out: Plant response rating, Nutsedge, Yellow",10%
same,pest or weed control at 62 g/ha,"[7]; Cyperus, pre-emergence, Preemergence, 62 g ai/ha, scale 0 to 100 (0 no effect, 100 complete control), read-out: Plant response rating, Nutsedge, Yellow",75%
same,pest or weed control at 125 g/ha,"[7]; Cyperus, pre-emergence, Preemergence, scale 0 to 100, 0 no effect, 100 complete control, read-out: Plant response rating, Nutsedge, Yellow",95%
same,"Nutsedge, Yellow plant response rating",[7]; [8],95
